The source of these data is PMC7883726 (Acta Pharmaceutica Sinica. B, 2021).

For data set [1] the following is noted: rats, orally administered; cited from earlier work.
For data set [2] the following is noted: cited from earlier work.
Data set [3] has as its target T1, SARS-CoV-2 RdRp (Severe acute respiratory syndrome coronavirus 2, UniProt P0DTD1). The data set can be described thus: cell-based.
The target in data set [4] is T1, SARS-CoV-2 RdRp. As to the kind of experiment: biochemical. Conditions: read-out: inhibition of polymerase activity.
Another data set addresses SARS-CoV-2 Mpro (Severe acute respiratory syndrome coronavirus 2, UniProt P0DTD1). The data set can be described thus: SARS-CoV-2 Mpro enzyme activity inhibition assay. It counts as biochemical. Particulars: 10 μmol/L.
A further data set deals with HCoV-OC43. The data set can be described thus: HCoV-OC43 cytopathic effects. It counts as cell-based.
The conditions of data set [5]: orally administered, cited from earlier work.
In the next data set the test system is HEK293T cells. Conditions: below 50 μmol/L, CCK-8.
Data set [6] deals with SARS-CoV-2 RdRp with nsp10–nsp14 exoribonuclease complex (Severe acute respiratory syndrome coronavirus 2, UniProt P0DTD1). The format is cell-based. Conditions: with versus without nsp10–nsp14.
In another data set the test system is SARS-CoV-2. Conditions: read-out: EC50 SARS-CoV-2 in vitro; cited from earlier work.

“Also recorded” adds a separate entry of the source. Like-named read-outs stand apart in the source and are kept apart here.

On to `O=C(O[C@@H]1O[C@@H]2COC(=O)c3cc(O)c(O)c(O)c3-c3c(cc(O)c(O)c3O)C(=O)O[C@H]([C@H]1O)[C@@H]2O)c1cc(O)c(O)c(O)c1` [RAI-S-37, Corilagin], for which the “maximum plasma concentration (Cmax)” value in [1] is 52.37 µg/mL. Further, in data set [2], the LD50 is listed as 3500–5000 mg/kg b. wt and the “acute dose showing maximum tolerance” value is on record as “up to 3500 mg/kg body weight (b.wt.)”. Besides, the “toxicity in acute toxicity studies” value in [2] (oral) is listed as “did not show any toxicity”. The compound further registered an EC50 on SARS-CoV-2 RdRp [3] of 3.33 µM. At SARS-CoV-2 RdRp [4], the inhibition at 2.5 µM was determined as 24%, the inhibition at 10 µM came to 73% and the inhibition at 40 µM stood at 83%. Also, the “inhibitory effect on SARS-CoV-2 Mpro” value at SARS-CoV-2 Mpro was “did not show any inhibitory effect”. Besides, in the data set on HCoV-OC43, the “concentration protecting cells from CPE induced by HCoV-OC43” value was 0.78 µmol/L. In data set [5] (mice and rats), the “half lifetime (t1/2)” value is given as “about 6 h” and the “time to Cmax (Tmax)” value is reported as approximately 2 h. Also, the “maximum plasma concentration (Cmax)” value in data set [5] (mice) was 57.0 µg/mL. For the same compound, the “cytotoxicity on HEK293T cells” value in the data set on HEK293T cells is reported as “Neither remdesivir nor RAI-S-37 showed cytotoxicity”. Besides, the “fold increase in EC50 on expression of nsp10–nsp14” value in data set [6] was “same EC50 values; also recorded: remain the same”.

`CCC(CC)COC(=O)[C@H](C)N[P@](=O)(OC[C@H]1O[C@@](C#N)(c2ccc3c(N)ncnn23)[C@H](O)[C@@H]1O)Oc1ccccc1` [remdesivir, reference compound]: in the data set on HCoV-OC43, the “concentration protecting cells from CPE induced by HCoV-OC43” value was 0.39 µmol/L. Besides, in the data set on HEK293T cells, the “cytotoxicity on HEK293T cells” value was “Neither remdesivir nor RAI-S-37 showed cytotoxicity”.

As to `NC(=O)c1ncn([C@@H]2O[C@H](CO)[C@@H](O)[C@H]2O)n1` [ribavirin], in the data set on SARS-CoV-2, the EC50 is 110 µM.
